# Earlier results, collected in patent US9579322B2, “Methods for treating neurologic disorders” (EIP Pharma, LLC, priority 2014, dated 2017).
# Conditions: animals; cited from earlier work
compound,measurement,value
NC(=O)c1ccc(N(C(N)=O)c2c(F)cccc2F)nc1-c1ccc(F)cc1F [VX-702],blood brain barrier penetration,non-blood-brain-barrier-penetrant
